Consider 2 substances from patent US8440637B2, “Combination treatment for the treatment of hepatitis C virus infection” (priority 2007, dated 2013).

The conditions of data set [1]: mouse, in vivo. How it is done:
C57BL/6J female mice were fed on high fat diet for 13 weeks before the initiation of the SEQ ID NO: 63 treatment. […] Both hypercholesterolemic and normal mice were treated i.p. twice weekly with 5 mg/kg SEQ ID NO: 63 and the corresponding mismatch control for a study period of 5½ weeks. Blood samples were collected weekly and total plasma cholesterol was measured during the entire course of the study. Upon sacrificing the mice, liver and blood samples were prepared for total RNA extraction, miRNA and mRNA quantification, assessment of the serum transaminase levels, and liver histology.
Serum from each individual mouse was prepared as follows: Blood samples were stored at room temperature for 2 h before centrifugation (10 min, 3000 rpm at room temperature). After centrifugation, serum was harvested and frozen at −20° C.
ALT and AST measurement was performed in 96-well plates using ALT and AST reagents from ABX Pentra according to the manufacturer's instructions. In short, serum samples were diluted 2.5 fold with H2O and each sample was assayed in duplicate. After addition of 50 μl diluted sample or standard (multical from ABX Pentra) to each well, 200 μl of 37° C. AST or ALT reagent mix was added to each well. Kinetic measurements were performed for 5 min with an interval of 30 s at 340 nm and 37° C. using a spectrophotometer.

Another data set deals with miR-122a. As to the kind of experiment: miR-122a level in transfected Huh-7 cells by miR-122a specific qRT-PCR. The following applies: transfected at 1 and 100 nM, 24 hours after transfection. In kind it is cell-based, human. The protocol:
The miR-122a expressing cell line Huh-7 was transfected with LNA anti-miR5 at 1 and 100 nM concentrations according to optimized lipofectamine 2000 (LF2000, Invitrogen) protocol (as follows).
Huh-7 cells were cultivated in Eagles MEM with 10% FBS, 2 mM Glutamax I, 1× non-essential amino acids, Gentamicin 25 μg/ml. The cells were seeded in 6-well plates (300000 cells per well), in a total vol. of 2.5 ml the day before transfection. At the day of transfection a solution containing LF2000 diluted in Optimem (Invitrogen) was prepared (1.2 ml optimem+3.75 μl LF2000 per well, final 2.5 μg LF2000/ml, final tot vol 1.5 ml).
LNA Oligonucleotides (LNA anti-miRs) were also diluted in optimem. 285 μl optimem+15 μl LNA oligonucleotide (10 μM oligonucleotide stock for final concentration 100 nM and 0.1 μM for final concentration 1 nM) Cells were washed once in optimem then the 1.2 ml optimem/LF2000 mix were added to each well. Cells were incubated 7 min at room temperature in the LF2000 mix where after the 300 μl oligonucleotide optimem solution was added. […]
miR-122a levels in the RNA samples were assessed on an ABI 7500 Fast real-time PCR instrument (Applied Biosystems, USA) using a miR-122a specific qRT-PCR kit, mirVana (Ambion, USA) and miR-122a primers (Ambion, USA). […]

The subject of data set [2] is miR-122. The data set is described as follows: Genome-wide liver expression profiling, Affymetrix Mouse Genome 430 2.0 arrays. In kind it is in vivo. The protocol:
We carried out genome-wide expression profiling of total RNA samples from saline LNA-antimiR-122 treated and LNA mismatch control treated mice livers 24 hours after the last dose using Affymetrix Mouse Genome 430 2.0 arrays. […] We subsequently examined the 3′ untranslated regions (UTRs) of the differentially expressed mRNAs for the presence of the 6 nt sequence CACTCC, corresponding to the reverse complement of the nucleotide 2-7 seed region in mature miR-122.
Expression profiles of livers of saline and LNA-antimiR treated mice were compared. NMRI female mice were treated with 25 mg/kg/day of LNA-antimiR along with saline control for three consecutive days and sacrificed 24 h, 1, 2 or 3 weeks after last dose. Additionally, expression profiles of livers of mice treated with the mismatch LNA control oligonucleotide 24 h after last dose were obtained. Three mice from each group were analyzed, yielding a total of […] expression profiles. RNA quality and concentration was measured using an Agilent 2100 Bioanalyzer and Nanodrop ND-1000, respectively. Total RNA was processed following the GeneChip Expression 3′-Amplification Reagents One-cycle cDNA synthesis kit instructions (Affymetrix Inc, Santa Clara, Calif., USA) to produce double-stranded cDNA. This was used as a template to generate biotin-labeled cRNA following manufacturer's specifications. Fifteen micrograms of biotin-labeled cRNA was fragmented to strands between 35 and 200 bases in length, of which 10 micrograms were hybridised onto Affymetrix Mouse Genome 430 2.0 arrays overnight in the GeneChip Hybridisation oven 6400 using standard procedures. The arrays were washed and stained in a GeneChip Fluidics Station 450. Scanning was carried out using the GeneChip Scanner 3000 and image analysis was performed using GeneChip Operating Software. Normalization and statistical analysis were done using the LIMMA software package for the R programming environment27. Probes reported as absent by GCOS software in all hybridizations were removed from the dataset. Additionally, an intensity filter was applied to the dataset to remove probes displaying background-corrected intensities below 16. Data were normalized using quantile normalization28. Differential expression was assessed using a linear model method. P values were adjusted for multiple testing using the Benjamini and Hochberg. Tests were considered to be significant if the adjusted p values were p<0.05. Clustering and visualization of Affymetrix array data were done using the MultiExperiment Viewer software29.

The test system of data set [3] is miR-122. In kind it is in vivo, mouse. The source says:
Liver cryo-sections from treated animals were subjected to in situ hybridizations for detection and localization of miR-122 and SEQ ID NO: 61 (FIG. 14). A probe complementary to miR-122 could detect miR-122a. A second probe was complementary to SEQ ID NO: 61. Shown in FIG. 14 is an overlay, in green is distribution and apparent amounts of miR-122a and SEQ ID NO: 61 and blue is DAPI nuclear stain, at 10× magnification. 100× magnifications reveal the intracellular distribution of miR-122a and SEQ ID NO: 61 inside the mouse liver cells.

Where [4] appears, read: liver, 24 hours after the last dose.

l = locked nucleic acid (LNA); d = 2'-deoxy (DNA)

Consider “5′-CcAttGTcaCaCtCC-3′ (antisense CCATTGTCACACTCC; sugars from the 5' end ldlddllddldldll, backbone and methylation of C not given here) [SEQ ID NO: 63]”, for which, in data set [1], the “ALT level (in words)” value is reported as “possibly elevated ALT level”; the “alanine and aspartate aminotransferase (ALT and AST) levels compared to saline (in words)” value was “No changes”. Also, in the data set with miR-122a, the “inhibition of miR-122a (in words)” value was “more efficient in inhibiting miR-122a at 1 nM”.

As for “5′-ccAttGtcAcaCtcCa-3′ (antisense CCATTGTCACACTCCA; sugars from the 5' end ddlddlddlddlddld, backbone and methylation of C not given here) [SEQ ID NO: 61]”, the “differentially expressed mRNAs” value in the data set with miR-122 [2] (24 hours after the last LNA dose) was 509. For the same substance, the values for the differentially expressed genes in the data set with miR-122 [2] (after one week) and with miR-122 [2] (three weeks post treatment) were 251 and 18, respectively. In addition, the transcripts downregulated in the data set with miR-122 [2] (setting [4]) came out at 54. The “transcripts upregulated compared to saline and LNA mismatch controls” value in the data set on miR-122 [2] (setting [4]) was determined as 455. Besides, in the data set on miR-122 [3] (liver cryo-sections from treated mice versus saline), the “miR-122 staining pattern in liver sections (in words)” value was “significantly reduced patchy staining pattern”. Further, the “intracellular distribution of the oligonucleotide in hepatocytes (in words)” value in the data set with miR-122 [3] (mouse, in vivo) was “evenly distributed in the entire cytoplasm”.
